# Source: patent US12006321B2, “Substituted pyrazolo[1,5-a]pyrimidines as apelin receptor agonists” (Sanford Burnham Prebys Medical Discovery Institute, priority 2017, dated 2024)
# Biological target: T1, human apelin receptor (APJ, APLNR) (Homo sapiens, UniProt P35414)
# T1 construct: host or cells: Chinese hamster ovary (CHO) cells, stably integrated receptor
# T1 sequence (P35414 1-380): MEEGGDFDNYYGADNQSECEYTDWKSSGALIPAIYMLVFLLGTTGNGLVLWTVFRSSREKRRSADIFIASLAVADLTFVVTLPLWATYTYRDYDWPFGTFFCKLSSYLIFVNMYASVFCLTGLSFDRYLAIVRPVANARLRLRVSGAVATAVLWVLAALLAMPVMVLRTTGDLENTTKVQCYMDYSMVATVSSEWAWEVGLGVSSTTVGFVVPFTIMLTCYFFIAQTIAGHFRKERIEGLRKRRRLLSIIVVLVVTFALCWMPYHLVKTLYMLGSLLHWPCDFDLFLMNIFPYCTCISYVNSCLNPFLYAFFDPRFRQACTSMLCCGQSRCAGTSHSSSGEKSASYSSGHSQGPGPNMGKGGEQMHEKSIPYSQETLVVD
# Experiment: cell-based cAMP assay (TR-FRET) in Chinese hamster ovary cells expressing the apelin receptor
# Details: EC50 = 50% of control (apelin-13, 1 nM) response; cAMP in CHO cells, 0.5 h incubation; read-out: Potency Category
# Procedure: This example illustrates the biological activity of various compounds tested against the APJ receptor.
# Commercially available cell lines were used to screen chemical libraries to identify compounds that potently and selectively activated the human apelin receptor. The assays disclosed herein were performed using cell lines from DiscoveX, Inc.
# Biological activity was determined to the cell-based assay. This assay detects activation of the receptor by reporting on intracellular cyclic adenosine monophosphate (cAMP) level. Chinese hamster ovary cells engineered to express the stably integrated human appellant receptor (APJ, AGTRL-one, APLNR), pleaded into the wells of the microtiter plate. Cells were stimulated with […] to increase intracellular cyclic AMP. Immediately following, compounds were added to the range of final concentrations 0.0-100 μM, in DMSO (not to exceed a final DMSO concentration greater than 1% v/v), and allowed to incubate with the cells for 0.5 h. At the end of the incubation, cells were lysed to stop APJ signaling and cAMP was quantified using a commercially available competitive immunoassay kit that applies homogenous time-resolved florescence energy transfer (TR-FRET). The assay is based on the competition between a europium (Eu) chelate-labeled cAMP donor tracer and cellular cAMP for binding sites on a cAMP-specific monoclonal antibody labeled with an acceptor fluorophore. When antibodies are bound to the cAMP tracer light emissions at 320 nm stimulate the energy transfer from the donor to the acceptor, which in turn emits light at 665 nm. In the presence of competitive unlabeled cAMP (derived from the activity of the receptor or forskolin-stimulated production of cAMP), the labelled cAMP tracer is dissociated from the cAMP antibody, resulting in a loss of FRET signal. The amount of light emitted by the FRET is inversely proportional to the cAMP generated by the cell/receptor system. Potency and efficacy at APJ are reported in reference to the canonical APJ receptor agonist apelin-13 when tested at 1 nM.
# Compound competency is reported as the effective concentration required to effect 50% (EC 50) of the control (apelin—13, 1 nM) response in micromole are (μM) units. Compound efficacy (% response) is reported as a percentage of the maximal apein-13 response at 1 nM (control). Potencies were calculated by fitting a four-point logistic curve to concentration response consisting of at least 10 discrete data points spanning effective range of the compounds in the cell-based assay that measures cAMP. In Table 1, the Potency Categories are A, B, C and D. Category A EC50>500 nM; Category B 200<EC50<500 nM; Category C 100<EC50<200 nM; Category D<100 nM.
row,EC50 [nM],Structure (SMILES)
1,> 500,"Cc1cccc(C)c1-c1c(C)nn2c(C(C)C)cc(C(=O)C(F)(F)F)nc12 [Compound 64, 1-[3-(2,6-dimethylphenyl)-2-methyl-7-(methylethyl)(8-hydropyrazolo[1,5-a]pyrimidin-5-yl)]-2,2,2-trifluoroethan-1-one]"
2,200 to 500,"Cc1cccc(C)c1-c1c(C)nn2c(C3CCCC3)cc(C(=O)O)nc12 [Compound 68, 3-(2,6-dimethylphenyl)-7-cyclopentyl-2-methyl-8-hydropyrazolo[1,5-a]pyrimidine-5-carboxylic acid]"
3,200 to 500,"Cc1cccc(C)c1-c1c(C)nn2c(C3CC3)cc(C(=O)O)nc12 [Compound 71, 3-(2,6-dimethylphenyl)-7-cyclopropyl-2-methyl-8-hydropyrazolo[1,5-a]pyrimidine-5-carboxylic acid]"
4,> 500,"CCc1nn2c(C(C)C)cc(C(=O)O)nc2c1-c1c(C)cccc1C [Compound 74, 3-(2,6-dimethylphenyl)-2-ethyl-7-(methylethyl)-8-hydropyrazolo[1,5-a]pyrimidine-5-carboxylic acid]"
5,100 to 200,"Cc1cccc(C)c1-c1c(C)nn2c(C(C)C)cc(C(=O)NO)nc12 [Compound 75, 3-(2,6-dimethylphenyl)-2-methyl-7-(methylethyl)-8-hydropyrazolo[1,5-a]pyrimidine-5-carbohydroxamic acid]"
6,> 500,"COc1cccc(C)c1-c1c(C)nn2c(C(C)C)cc(C(=O)O)nc12 [Compound 76, 3-(2-methoxy-6-methylphenyl)-2-methyl-7-(methylethyl)-8-hydropyrazolo[1,5-a]pyrimidine-5-carboxylic acid]"
7,100 to 200,"CCOC(=O)c1cccc(C)c1-c1c(C)nn2c(C(C)C)cc(C(=O)O)nc12 [Compound 77, 3-[6-(ethoxycarbonyl)-2-methylphenyl]-2-methyl-7-(methylethyl)-8-hydropyrazolo[1,5-a]pyrimidine-5-carboxylic acid]"
8,> 500,"Cc1cccc(C)c1-c1c(-c2ccccc2)nn2c(C(C)C)cc(C(=O)O)nc12 [Compound 79, 3-(2,6-dimethylphenyl)-7-(methylethyl)-2-phenyl-8-hydropyrazolo[1,5-a]pyrimidine-5-carboxylic acid]"
9,> 500,"Cc1cccc(C)c1-c1c(C(C)C)nn2c(C(C)C)cc(C(=O)O)nc12 [Compound 80, 2,7-bis(methylethyl)-3-(2,6-dimethylphenyl)-8-hydropyrazolo[1,5-a]pyrimidine-5-carboxylic acid]"
10,> 500,"Cc1cccc(C)c1-c1c(C2CCC2)nn2c(C(C)C)cc(C(=O)O)nc12 [Compound 81, 3-(2,6-dimethylphenyl)-2-cyclobutyl-7-(methylethyl)-8-hydropyrazolo[1,5-a]pyrimidine-5-carboxylic acid]"
11,> 500,"Cc1cccc(C)c1-c1c(C2CC2)nn2c(C(C)C)cc(C(=O)O)nc12 [Compound 84, 3-(2,6-dimethylphenyl)-2-cyclopropyl-7-(methylethyl)-8-hydropyrazolo[1,5-a]pyrimidine-5-carboxylic acid]"
12,> 500,"Cc1cccc(C(=O)O)c1-c1c(C)nn2c(C(C)C)cc(C(=O)O)nc12 [Compound 85, 3-(2-carboxy-6-methylphenyl)-2-methyl-7-(methylethyl)-8-hydropyrazolo[1,5-a]pyrimidine-5-carboxylic acid]"
13,> 500,"CCOC(=O)c1cc(C(C)C)n2nc(CO)c(-c3c(C)cccc3C)c2n1 [Compound 86, ethyl 3-(2,6-dimethylphenyl)-2-(hydroxymethyl)-7-(methylethyl)-8-hydropyrazolo[1,5-a]pyrimidine-5-carboxylate]"
14,> 500,"Cc1cccc(C)c1-c1c(CO)nn2c(C(C)C)cc(C(=O)O)nc12 [Compound 87, 3-(2,6-dimethylphenyl)-2-(hydroxymethyl)-7-(methylethyl)-8-hydropyrazolo[1,5-a]pyrimidine-5-carboxylic acid]"
15,> 500,"COCc1nn2c(C(C)C)cc(C(=O)O)nc2c1-c1c(C)cccc1C [Compound 89, 3-(2,6-dimethylphenyl)-2-(methoxymethyl)-7-(methylethyl)-8-hydropyrazolo[1,5-a]pyrimidine-5-carboxylic acid]"
16,> 500,"Cc1cccc(C)c1-c1c(CN(C)C)nn2c(C(C)C)cc(C(=O)O)nc12 [Compound 90, 2-[(dimethylamino)methyl]-3-(2,6-dimethylphenyl)-7-(methylethyl)-8-hydropyrazolo[1,5-a]pyrimidine-5-carboxylic acid]"

# Further lines, the molecule ahead of its results:
row,Structure (SMILES),EC50 [nM]
1,"Cc1cccc(C)c1-c1c(C)nn2c(C(C)C)cc(C(O)C(F)(F)F)nc12 (stereo not shown) [Compound 63, 1-[3-(2,6-dimethylphenyl)-2-methyl-7-(methylethyl)(8-hydropyrazolo[1,5-a]pyrimidin-5-yl)]-2,2,2-trifluoroethan-1-ol]",> 500
2,"CCOC(=O)c1cc(C(C)C)n2nc(C)c(-c3c(C)cccc3OC)c2n1 [Compound 65, ethyl 3-(6-methoxy-2-methylphenyl)-2-methyl-7-(methylethyl)-8-hydropyrazolo[1,5-a]pyrimidine-5-carboxylate]",> 500
3,"CCOC(=O)c1cc(C(C)C)n2nc(C)c(-c3c(C)cc(Cl)cc3C)c2n1 [Compound 66, ethyl 3-(4-chloro-2,6-dimethylphenyl)-2-methyl-7-(methylethyl)-8-hydropyrazolo[1,5-a]pyrimidine-5-carboxylate]",> 500
4,"CCOC(=O)c1cc(C(C)C)n2nc(C)c(-c3c(C)cccc3C(=O)OCC)c2n1 [Compound 67, ethyl 3-[2-(ethoxycarbonyl)-6-methylphenyl]-2-methyl-7-(methylethyl)-8-hydropyrazolo[1,5-a]pyrimidine-5-carboxylate]",> 500
5,"CCOC(=O)c1cc(C2CCCC2)n2nc(C)c(-c3c(C)cccc3C)c2n1 [Compound 69, ethyl 3-(2,6-dimethylphenyl)-7-cyclopentyl-2-methyl-8-hydropyrazolo[1,5-a]pyrimidine-5-carboxylate]",> 500
6,"Cc1cc(Cl)cc(C)c1-c1c(C)nn2c(C(C)C)cc(C(=O)O)nc12 [Compound 70, 3-(4-chloro-2,6-dimethylphenyl)-2-methyl-7-(methylethyl)-8-hydropyrazolo[1,5-a]pyrimidine-5-carboxylic acid]",> 500
7,"CCc1cc(C(=O)O)nc2c(-c3c(C)cccc3C)c(C)nn12 [Compound 72, 3-(2,6-dimethylphenyl)-7-ethyl-2-methyl-8-hydropyrazolo[1,5-a]pyrimidine-5-carboxylic acid]",> 500
8,"CCOC(=O)c1cc(C(C)C)n2nc(C(C)C)c(-c3c(C)cccc3C)c2n1 [Compound 73, ethyl 2,7-bis(methylethyl)-3-(2,6-dimethylphenyl)-8-hydropyrazolo[1,5-a]pyrimidine-5-carboxylate]",> 500
9,"CCOC(=O)c1cc(C(C)C)n2nc(-c3ccccc3)c(-c3c(C)cccc3C)c2n1 [Compound 78, ethyl 3-(2,6-dimethylphenyl)-7-(methylethyl)-2-phenyl-8-hydropyrazolo[1,5-a]pyrimidine-5-carboxylate]",> 500
10,"CCOC(=O)c1cc(-c2ccccc2)n2nc(C)c(-c3c(C)cccc3C)c2n1 [Compound 82, ethyl 3-(2,6-dimethylphenyl)-2-methyl-7-phenyl-8-hydropyrazolo[1,5-a]pyrimidine-5-carboxylate]",> 500
11,"Cc1cccc(C)c1-c1c(C)nn2c(-c3ccccc3)cc(C(=O)O)nc12 [Compound 83, 3-(2,6-dimethylphenyl)-2-methyl-7-phenyl-8-hydropyrazolo[1,5-a]pyrimidine-5-carboxylic acid]",> 500
12,"COCc1nn2c(C(C)C)cc(C(=O)OC)nc2c1-c1c(C)cccc1C [Compound 88, methyl 3-(2,6-dimethylphenyl)-2-(methoxymethyl)-7-(methylethyl)-8-hydropyrazolo[1,5-a]pyrimidine-5-carboxylate]",> 500
